Results: publication PMC9738565, “N1-Benzyl Tryptamine Pan-SHIP1/2 Inhibitors: Synthesis and Preliminary Biological Evaluation as Anti-Tumor Agents” (Molecules, 2022)
Where two headings read alike, the source gives them in different places. Marks after values point to notes of the source that are not given here.

Legend:
tSHIP1 = molecular target: T1, tSHIP1 (Homo sapiens, UniProt Q92835); experiment: Fluorescence Polarization (FP) assay for the detection of PI(3,4)P2, SHIP1; type: biochemical; details: FP assay; read-out: IC50 SHIP1 (Via FP)
T1 sequence (Q92835 399-715 limits assumed): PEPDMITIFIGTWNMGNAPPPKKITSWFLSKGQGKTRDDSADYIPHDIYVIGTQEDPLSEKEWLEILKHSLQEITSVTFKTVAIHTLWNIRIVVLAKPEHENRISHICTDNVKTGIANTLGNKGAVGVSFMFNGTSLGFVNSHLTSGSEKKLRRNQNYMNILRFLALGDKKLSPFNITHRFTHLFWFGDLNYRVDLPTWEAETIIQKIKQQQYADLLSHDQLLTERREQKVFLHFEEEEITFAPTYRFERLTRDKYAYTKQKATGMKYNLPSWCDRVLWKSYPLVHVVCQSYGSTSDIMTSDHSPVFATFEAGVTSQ
Experimental: (§1) These compounds were then tested for their activity against the two SHIP paralogs, SHIP1 and SHIP2 in the colorimetric malachite green phosphatase assay. The malachite green assay detects the amount of free phosphate produced from enzymatic reactions with SHIP and an inositol phospholipid substrate.
4.8. Fluorescence Polarization (FP) Assays for the Detection of PI(3,4)P2
The FP Assay for the detection of PI(3,4)P2 (Echelon Biosciences) was performed using tSHIP1 [48] with serial dilutions of the tryptamines in DMSO according to the manufacturer’s recommendation as previously described. […] 40 µL of 4 µM PIP3 (PI(3,4,5)P3-diC8) in Rx buffer is added to each reaction and incubated at 37 °C for 20 min, followed by heat inactivation for 3 min at 95 °C. Reactions were spun down briefly and 10 µL of each reaction was added in 6 replicate wells to a black 384-well plate provided with the FP kit. 10 µL of 1X reconstituted Detector (a phosphoinositide binding protein) in PBS is then added to each well, followed by 5 µL of 1X freshly diluted Probe (in PBS, a fluorophore-labeled phosphoinositide) protected from light. Assay plates are gently tapped to mix, the plate is sealed and spun down briefly and the reaction is allowed to equilibrate for 60 min at room temperature protected from light.

SHIP2 [1] = molecular target: T2, SHIP2 (Homo sapiens, UniProt O15357); experiment: Malachite green phosphatase release assay, SHIP2; type: biochemical; details: for inhibition at 250 µM: read-out: Malachite (250 µM) % Inhib. SHIP2; for inhibition at 500 µM: read-out: Malachite (500 µM) % Inhib. SHIP2; for activity against SHIP2 (in words): summary of Table 1
T2 construct: purchased Echelon Biosciences
T2 sequence (O15357 1-1258): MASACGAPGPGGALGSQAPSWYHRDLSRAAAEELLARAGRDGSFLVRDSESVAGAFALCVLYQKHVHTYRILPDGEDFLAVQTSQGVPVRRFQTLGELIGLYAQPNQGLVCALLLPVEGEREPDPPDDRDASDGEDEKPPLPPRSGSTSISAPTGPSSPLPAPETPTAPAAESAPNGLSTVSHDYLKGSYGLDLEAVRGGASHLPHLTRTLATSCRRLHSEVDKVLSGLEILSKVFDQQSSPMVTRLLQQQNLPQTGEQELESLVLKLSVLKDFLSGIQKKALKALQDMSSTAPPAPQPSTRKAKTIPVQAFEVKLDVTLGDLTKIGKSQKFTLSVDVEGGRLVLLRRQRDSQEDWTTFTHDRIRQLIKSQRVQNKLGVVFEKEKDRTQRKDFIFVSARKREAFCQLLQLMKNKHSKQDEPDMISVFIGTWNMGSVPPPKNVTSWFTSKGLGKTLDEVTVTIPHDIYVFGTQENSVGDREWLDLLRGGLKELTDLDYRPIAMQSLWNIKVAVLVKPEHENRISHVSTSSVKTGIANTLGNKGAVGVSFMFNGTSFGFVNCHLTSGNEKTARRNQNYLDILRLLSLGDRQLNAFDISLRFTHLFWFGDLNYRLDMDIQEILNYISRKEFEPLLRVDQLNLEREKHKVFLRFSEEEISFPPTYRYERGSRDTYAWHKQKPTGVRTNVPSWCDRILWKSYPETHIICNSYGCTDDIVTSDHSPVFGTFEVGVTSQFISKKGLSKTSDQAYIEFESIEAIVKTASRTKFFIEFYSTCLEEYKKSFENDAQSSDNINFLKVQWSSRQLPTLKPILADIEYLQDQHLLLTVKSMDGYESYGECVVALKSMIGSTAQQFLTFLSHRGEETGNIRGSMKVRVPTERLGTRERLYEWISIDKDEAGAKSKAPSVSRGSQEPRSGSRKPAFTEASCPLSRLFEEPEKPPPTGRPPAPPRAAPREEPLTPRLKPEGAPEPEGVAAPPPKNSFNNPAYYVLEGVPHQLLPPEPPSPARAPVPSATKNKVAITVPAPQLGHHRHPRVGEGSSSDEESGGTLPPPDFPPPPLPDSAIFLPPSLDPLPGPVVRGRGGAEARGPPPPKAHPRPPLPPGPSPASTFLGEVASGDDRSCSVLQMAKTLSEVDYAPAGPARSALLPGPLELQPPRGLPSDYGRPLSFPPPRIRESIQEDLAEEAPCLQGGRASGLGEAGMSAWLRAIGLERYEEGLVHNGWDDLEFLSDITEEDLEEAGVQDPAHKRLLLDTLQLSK
Experimental: as §1
(§2) 4.7. Malachite Green Phosphatase Release Assays
(§3) Malachite green assays to monitor phosphatase release (Echelon Biosciences) were performed with recombinant human truncated SHIP1 (tSHIP1) and SHIP2 (Echelon Biosciences). Serial dilutions of the compounds dissolved in DMSO were added to the recombinant enzymes diluted in reaction buffer Rx (50 mM Hepes pH 7.4, 150 mM NaCl, 1 mM MgCl2, 0.25 mM EDTA) in triplicate reaction wells in 96-well plates. After incubation for 2 min at room temperature, 2.5 µL of 1 mM phosphatidylinositol 3,4,5-trisphosphate diC8 (PI(3,4,5)P3-diC8, Echelon Biosciences) was added to each reaction to a final concentration of 100 µM in a final volume of 25 µL /well. Following a 20 min incubation at 37 °C, 100 µL of Malachite Green solution (Echelon Biosciences) was added to each well and the plates were incubated at room temperature in the dark for 15 min. Plates were then read at 620 nm on a plate reader (Synergy 2, BioTek, Santa Clara, CA, USA). In addition, 3α-Aminocholestane, a known SHIP1 inhibitor, and AS1949490, a known SHIP2 inhibitor, were used as positive controls.

SHIP2 [2] = molecular target: T2, SHIP2; experiment: Fluorescence Polarization (FP) assay for the detection of PI(3,4)P2, SHIP2; type: biochemical; details: read-out: IC50 SHIP2 (via FP)
[3] = tested on: recombinant human truncated SHIP1 (tSHIP1); experiment: Malachite green phosphatase release assay, SHIP1; type: biochemical; details: for Malachite (250 µM) % Inhib. SHIP1: 250 µM compound; for Malachite (500 µM) % Inhib. SHIP1: 500 µM compound; for activity against SHIP1 (in words): summary of Table 1
Experimental: These compounds were then tested for their activity against the two SHIP paralogs, SHIP1 and SHIP2 in the colorimetric malachite green phosphatase assay. The malachite green assay detects the amount of free phosphate produced from enzymatic reactions with SHIP and an inositol phospholipid substrate. The Malachite assay is useful for ruling out compounds that are fluorescent or have aggregation issues and is inexpensive, so it was utilized as the primary screen even though it is not as sensitive as other assays.
as §2, §3

[4] = Behaviour of compound when mixed with assay buffer; type: physicochemical
Experimental: Compounds with modifications of the primary amine of the tryptamine were also tested. […] While SHIP1 agonists may have applications as anti-inflammatories, the agonist activity of 15 was weak and therefore was not further pursued. […] While these analogs may present a path towards selective inhibitors of SHIP2, these compounds will not be useful in determining the effects of pan-SHIP inhibition in tumor models.

Compound: CSc1ccc2c(c1)c(CCN)c(C)n2Cc1ccccc1.Cl [Compound 7e, 2-(1-Benzyl-2-methyl-5-(methylthio)-1H-indol-3-yl)ethanaminium chloride]
- IC50 (tSHIP1): 13 µM
- inhibition at 250 µM (SHIP2 [1]; 250 µM compound): 28%
- inhibition at 500 µM (SHIP2 [1]; 500 µM compound): 39%
- activity against SHIP2 (in words) (SHIP2 [1]): active analog
- IC50 (SHIP2 [2]): 12 µM
- Malachite (250 µM) % Inhib. SHIP1 [3]: 0%
- Malachite (500 µM) % Inhib. SHIP1 [3]: 40%
- activity against SHIP1 (in words) [3]: active analog

Compound: CSc1ccc2c(c1)c(CCNC(C)=O)c(C)n2Cc1ccccc1Cl [Compound 16]
- inhibition at 250 µM (SHIP2 [1]; 250 µM compound): 0%
- inhibition at 500 µM (SHIP2 [1]; 500 µM compound): 0%
- solubility behaviour in buffer [4]: tended to precipitate when mixed with buffer
- Malachite (250 µM) % Inhib. SHIP1 [3]: 25% ^a
- Malachite (500 µM) % Inhib. SHIP1 [3]: 0% ^a

Compound: CSc1ccc2c(c1)c(CCN)c(C)n2Cc1ccc(Cl)cc1.Cl [Compound 7b, 2-(1-(4-Chlorobenzyl)-2-methyl-5-(methylthio)-1H-indol-3-yl)ethanaminium chloride]
- IC50 (tSHIP1): 11 µM
- inhibition at 250 µM (SHIP2 [1]; 250 µM compound): 18%
- inhibition at 500 µM (SHIP2 [1]; 500 µM compound): 49%
- activity against SHIP2 (in words) (SHIP2 [1]): significant activity
- Malachite (250 µM) % Inhib. SHIP1 [3]: 0%
- Malachite (500 µM) % Inhib. SHIP1 [3]: 33%
- activity against SHIP1 (in words) [3]: significant activity

Compound: CSc1ccc2c(c1)c(CCN(C)C)c(C)n2Cc1ccccc1Cl [Compound 14, (2{1-[(2-Chlorophenyl)methyl]-2-methyl-5-(methylsulfanyl-1H-indol-3-yl}ethyl)dimethylaminium chloride]
- inhibition at 250 µM (SHIP2 [1]; 250 µM compound): 0%
- inhibition at 500 µM (SHIP2 [1]; 500 µM compound): 6%
- activity against SHIP2 (in words) (SHIP2 [1]): inactive
- Malachite (250 µM) % Inhib. SHIP1 [3]: 0%
- Malachite (500 µM) % Inhib. SHIP1 [3]: 5%
- activity against SHIP1 (in words) [3]: inactive

Compound: CSc1ccc2[nH]c(C)c(CCN)c2c1.Cl [Compound 7f, 2-(2-Methyl-5-(methylthio)-1H-indol-3-yl)ethanaminium chloride]
- inhibition at 250 µM (SHIP2 [1]): 0%
- inhibition at 500 µM (SHIP2 [1]): 2%
- activity against SHIP2 (in words) (SHIP2 [1]): virtually no activity
- Malachite (250 µM) % Inhib. SHIP1 [3]: 0%
- Malachite (500 µM) % Inhib. SHIP1 [3]: 0%
- activity against SHIP1 (in words) [3]: virtually no activity

Compound: CCNCCc1c(C)n(Cc2ccccc2Cl)c2ccc(SC)cc12 [Compound 17, (2{1-[(2-Chlorophenyl)methyl]-2-methyl-5-(methylsulfanyl-1H-indol-3-yl}ethyl)ethylaminium chloride]
- inhibition at 250 µM (SHIP2 [1]; 250 µM compound): 13%
- inhibition at 500 µM (SHIP2 [1]; 500 µM compound): 47%
- Malachite (250 µM) % Inhib. SHIP1 [3]: 1%
- Malachite (500 µM) % Inhib. SHIP1 [3]: 21%
- activity against SHIP1 (in words) [3]: no inhibition

Compound: CNCCc1c(C)n(Cc2ccccc2Cl)c2ccc(SC)cc12 [Compound 13, (2{1-[(2-Chlorophenyl)methyl]-2-methyl-5-(methylsulfanyl-1H-indol-3-yl}ethyl)methylaminium chloride]
- inhibition at 250 µM (SHIP2 [1]; 250 µM compound): 14%
- inhibition at 500 µM (SHIP2 [1]; 500 µM compound): 38%
- Malachite (250 µM) % Inhib. SHIP1 [3]: 0%
- Malachite (500 µM) % Inhib. SHIP1 [3]: 9%
- activity against SHIP1 (in words) [3]: no inhibition

Compound: CSc1ccc2c(c1)c(CCN)c(C)n2Cc1ccc(Br)cc1.Cl [Compound 7c, 2-(1-(4-Bromobenzyl)-2-methyl-5-(methylthio)-1H-indol-3-yl)ethanaminium chloride]
- IC50 (tSHIP1): 51 µM
- inhibition at 250 µM (SHIP2 [1]; 250 µM compound): 30%
- inhibition at 500 µM (SHIP2 [1]; 500 µM compound): 38%
- IC50 (SHIP2 [2]): 58 µM
- Malachite (250 µM) % Inhib. SHIP1 [3]: 3%
- Malachite (500 µM) % Inhib. SHIP1 [3]: 47%

Compound: CSc1ccc2c(c1)c(CCNS(C)(=O)=O)c(C)n2Cc1ccccc1Cl [Compound 15, N-(2{1-[(2-Chlorophenyl)methyl]-2-methyl-5-(methylsulfanyl)-1H-indol-3-yl}ethyl) methanesulfonamide]
- Malachite (250 µM) % Inhib. SHIP1 [3]: −10%
- Malachite (500 µM) % Inhib. SHIP1 [3]: −27%
- activity against SHIP1 (in words) [3]: weak agonist
